According to patent US9873883B2, “Glyphosate resistant plants and associated methods” (Dow AgroSciences LLC, priority 2012, dated 2018):

Experiments:
[1] = molecular target: T1, Mariprofundus ferrooxydans EPSP synthase DGT-14 v1, native wild type (GENBANK ZP_01452683; SEQ ID NO:17) (Mariprofundus ferrooxydans, UniProt Q0EYT4); assay: In vitro kinetic assay (inorganic phosphate production, malachite green); format: biochemical; settings: IC50 (glyphosate)
T1 construct: pET28, N-terminal 6xHis and thrombin site, E. coli, IMAC purified
Description: One enzyme that was identified was DGT-14 (GENBANK ACC NO: ZP_01452683) from Manprofundus ferrooxydans. […] One of these enzymes, DGT-11 (SEQ ID NO:5), contains a natural alanine at an analogous position within the EPSP synthase enzyme as that of the G96A mutation which was introduced into the E. coli version of the enzyme.
Site directed mutagenesis was carried out on the synthetic dgt-14 v6 to confirm the role of the alanine that was introduced at the glycine residue of amino acid residue 101. THE QUICK CHANGE II® kit from Stratagene (Santa Clara, Calif.) was used to perform the mutagenesis. The following primers were designed to make the amino acid switch. […]
Cell pellets from 1 L cultures were resuspended in 20-30 mL Buffer A (50 mM HEPES pH 7.5, 150 mM KCl, 2 mM DTT, 1 mM EDTA, 20 mM imidazole, and 5% glycerol). […] Samples were typically diluted 1:50 and the UV-visible spectrum was recorded from 240-700 nm on a Cary50 Bio UV-visible spectrophotometer. A theoretical extinction coefficient was then used to calculate the protein concentration based on the absorbance at 280 nm (ExPASy, Geneva, Switzerland).
The enzyme activities of wild-type (WT) and mutant DGTs were measured by inorganic phosphate (Pi) production in a modified procedure described by Lanzetta et al., (1979). […]

[2] = molecular target: bacterial EPSP synthase DGT-11 v6, native (GENBANK YP_989551.1), SEQ ID NO:5 (Bartonella bacilliformis, UniProt A0ABN0IFN8); assay: as above
Description: The synthesized genes were cloned into the pET28 expression vector.
Recombinant DGT proteins were overexpressed in Rosetta2™ (DE3) cells (Novagen, Madison, Wis.) from the constructs described above. A single colony was used to inoculate 50 mL starter cultures of LB containing chloramphenicol (25 μg/mL) and kanamycin (50 μg/mL) which were cultivated overnight at 37° C. The overnight cultures were used to inoculate 1 L of LB containing chloramphenicol (25 μg/mL) and kanamycin (50 μg/mL). The cultures were grown at 37° C. to an O.D.600=0.6 then placed in an ice water bath for 10 minutes. Expression of the target proteins was achieved by addition of IPTG to a final concentration of 500 μM. Induction was allowed to proceed overnight at 20° C. followed by harvesting via centrifugation at 8,000 rpm for 20 minutes. The cell pellets were stored at −80° C. until required for purification. All purification steps were carried out at 4° C.

[3] = system: Non-transformed control Arabidopsis (cv. Columbia); assay: Postemergence glyphosate tolerance, visual injury; format: in vivo, Arabidopsis thaliana; settings: 840 g ae/ha, 2 weeks after application

**Q.** How did the IC50 ([1]; at 60 μM PEP) turn out when `O=C(O)CNCP(=O)(O)O` [glyphosate, N-(phosphonomethyl)glycine] was run?
**A.** 0.44 mM

**Q.** What about the IC50 ([1]; at 1 mM PEP) of the same compound?
**A.** > 20.2 mM

**Q.** And the IC50 [2]?
**A.** 9.98 mM

**Q.** What about the “Visual % injury (Ave)” value ([3]; T2 study) of the same compound?
**A.** 100.0%

**Q.** And the “Visual % injury (Ave)” value ([3]; T3 study)?
**A.** 100.0%
